US8507509B2, “Saturated and insaturated bi- or tricyclic aryloxyacetamine derivatives and their use as fungicides” (Syngenta Crop Protection LLC, priority 2007, dated 2013)

Tests used:
Plasmopara viticola = Plasmopara viticola (downy mildew of grapevine), grapevine leaf disk assay, preventive; format: in vivo; conditions: foliar, 168 h, 200 ppm, grapevine leaf disks, assessed seven days after inoculation, read-out: control of fungal infection, Plasmopara viticola
Phytophthora infestans = assay: whole plant or invertebrate; format: in vivo; conditions: in Solanum lycopersicum, foliar, 96 h, read-out: control of fungal infection, Phytophthora infestans
[1] = test system: Erysiphe graminis f.sp. tritici; assay: Erysiphe graminis f.sp. tritici (wheat powdery mildew), wheat leaf segment assay, preventive; format: in vivo; conditions: Blumeria graminis, foliar, 96 h; 200 ppm; wheat leaf segments; assessed four days after inoculation; read-out: control of fungal infection, Etysiphe graminis f.sp. tritici
Pyricularia oryzae = assay: whole plant or invertebrate; format: in vivo; conditions: foliar, 96 h, read-out: control of fungal infection, Pyricularia oryzae
Septoria tritici = Septoria tritici (leaf blotch), liquid culture growth inhibition in nutrient broth; format: cell-based; conditions: Zymoseptoria tritici; 200 ppm; PDB broth, 24 C; inhibition of growth determined photometrically after 72 hrs; read-out: control of fungal infection, Septoria tritici
Pythium ultimum = Pythium ultimum (Damping off), liquid culture growth inhibition in potato dextrose broth; format: cell-based; conditions: Globisporangium ultimum; 20 ppm; potato dextrose broth, 24° C.; inhibition of growth determined photometrically after 48 hours; read-out: control of fungal infection, Pythium ultimum
Septoria nodorum = Septoria nodorum (wheat glume blotch), wheat leaf segment assay, preventive; format: in vivo; conditions: Parastagonospora nodorum, foliar, 96 h; 200 ppm; wheat leaf segments; assessed four days after inoculation; read-out: control of fungal infection, Septoria nodorum
Botrytis cinerea = Botrytis cinerea (grey mould), bean leaf disk assay, preventive; format: in vivo; conditions: foliar, 96 h, 200 ppm, bean leaf disks, assessed four days after inoculation, read-out: control of fungal infection, Botrytis cinerea
[2] = test system: Puccinia recondita f.sp. tritici; assay: Puccinia recondita f.sp. tritici (wheat brown rust), wheat leaf segment assay, preventive; format: in vivo; conditions: foliar, 216 h, 200 ppm, wheat leaf segments, assessed nine days after inoculation, read-out: control of fungal infection, Puccinia recondite f.sp. tritici
Fusarium culmorum = Fusarium culmorum (root rot), liquid culture growth inhibition in nutrient broth; format: cell-based; conditions: PDB broth, 24 C, inhibition of growth determined photometrically after 48 hrs, read-out: control of fungal infection, Fusarium culmorum
How it was run: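 Fusarium culmorum conidia from cryogenic storage were mixed into potato dextrose broth and added to compound pre-dispensed from DMSO (diluted in 0.025% Tween20). Incubated at 24 C in the dark; growth inhibition read photometrically after 48 hrs.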

Row | SMILES | pest or weed control at 200 ppm (Plasmopara viticola) | pest or weed control at 200 ppm (Phytophthora infestans) | pest or weed control at 200 ppm [1] | pest or weed control at 200 ppm (Pyricularia oryzae) | inhibition of growth at 200 ppm (Septoria tritici) | inhibition of growth at 20 ppm (Pythium ultimum) | pest or weed control at 200 ppm (Septoria nodorum) | pest or weed control at 200 ppm (Botrytis cinerea) | pest or weed control at 200 ppm [2] | inhibition of growth at 200 ppm (Fusarium culmorum) | melting point
1 | CON=CC(C)(C)NC(=O)C(Oc1ccc2ncc(Br)cc2c1)SC (stereo not shown) [Compound No. 15, 2-(3-Bromo-quinolin-6-yloxy)-N-(2-methoxyimino-1,1-dimethyl-ethyl)-2-methylsulfanyl-acetamide] | ≥ 60% | ≥ 60% | ≥ 60% | ≥ 60% | ≥ 60% | ≥ 60% |  |  |  |  | 
2 | CCON=CC(C)(C)NC(=O)C(Oc1ccc2ncc(Br)cc2c1)SC (stereo not shown) [Compound No. 16, 2-(3-Bromo-quinolin-6-yloxy)-N-(2-ethoxyimino-1,1-dimethyl-ethyl)-2-methylsulfanyl-acetamide] |  | ≥ 60% | ≥ 60% | ≥ 60% |  | ≥ 60% |  |  |  |  | 
3 | CCON=CC(C)(C)NC(=O)C(Oc1cc(C)c2ncc(Br)cc2c1)SC (stereo not shown) [Compound No. 27, 2-(3-bromo-8-methyl-quinolin-6-yloxy)-N-(2-ethoxyimino-1,1-dimethyl-ethyl)-2-methylsulfanyl-acetamide] |  | ≥ 60% |  | ≥ 60% | ≥ 60% |  |  |  |  |  | 
4 | C=CCON=CC(C)(C)NC(=O)C(Oc1cc(C)c2ncc(I)cc2c1)SC (stereo not shown) [Compound No. 45, N-(2-Allyloxyimino-1,1-dimethyl-ethyl)-2-(3-iodo-8-methyl-quinolin-6-yloxy)-2-methylsulfanyl-acetamide] | ≥ 60% | ≥ 60% | ≥ 60% | ≥ 60% | ≥ 60% |  | ≥ 60% |  |  |  | 
5 | CON=CC(C)(C#N)NC(=O)C(Oc1cc(C)c2ncc(I)cc2c1)SC (stereo not shown) [Compound No. 55, N-(1-Cyano-2-methoxyimino-1-methyl-ethyl)-2-(3-iodo-8-methyl-quinolin-6-yloxy)-2-methylsulfanyl-acetamide] | ≥ 60% | ≥ 60% | ≥ 60% |  |  | ≥ 60% | ≥ 60% | ≥ 60% | ≥ 60% | ≥ 60% | 166 to 168 °C
6 | C#Cc1cnc2c(C)cc(OC(SC)C(=O)NC(C)(C#N)C=NOC)cc2c1 (stereo not shown) [Compound No. 56, N-(1-Cyano-2-methoxyimino-1-methyl-ethyl)-2-(3-ethynyl-8-methyl-quinolin-6-yloxy)-2-methylsulfanyl-acetamide] | ≥ 60% | ≥ 60% | ≥ 60% |  | ≥ 60% | ≥ 60% | ≥ 60% | ≥ 60% | ≥ 60% |  | 172 to 174 °C
7 | CON=CC(C)(C#N)NC(=O)C(Oc1ccc2ncc(I)cc2c1)SC (stereo not shown) [Compound No. 57, N-(1-Cyano-2-methoxyimino-1-methyl-ethyl)-2-(3-iodo-quinolin-6-yloxy)-2-methylsulfanyl-acetamide] | ≥ 60% | ≥ 60% | ≥ 60% |  | ≥ 60% | ≥ 60% | ≥ 60% |  | ≥ 60% | ≥ 60% | 59 to 64 °C
8 | CON=CC(C)(C#N)NC(=O)C(Oc1ccc2ncc(C#C[Si](C)(C)C)cc2c1)SC (stereo not shown) [Compound No. 58, N-(1-Cyano-2-methoxyimino-1-methyl-ethyl)-2-methylsulfanyl-2-(3-trimethylsilanylethynyl-quinolin-6-yloxy)-acetamide] | ≥ 60% | ≥ 60% | ≥ 60% |  | ≥ 60% | ≥ 60% | ≥ 60% | ≥ 60% |  |  | 69 to 75 °C
9 | CON=CC(C)(C)NC(=O)C(OC)Oc1cc(C)c2ncc(Br)cc2c1 (stereo not shown) [Compound No. 71, 2-(3-Bromo-8-methyl-quinolin-6-yloxy)-2-methoxy-N-(2-methoxyimino-1,1-dimethyl-ethyl)-acetamide] | ≥ 60% |  | ≥ 60% |  | ≥ 60% |  |  | ≥ 60% |  | ≥ 60% | 130 to 132 °C
10 | CON=CC(C)(C)NC(=O)C(OC)Oc1ccc2ncc(I)cc2c1 (stereo not shown) [Compound No. 72, 2-(3-Iodo-quinolin-6-yloxy)-2-methoxy-N-(2-methoxyimino-1,1-dimethyl-ethyl)-acetamide] | ≥ 60% | ≥ 60% | ≥ 60% |  | ≥ 60% | ≥ 60% | ≥ 60% | ≥ 60% | ≥ 60% | ≥ 60% | 101 to 103 °C
11 | CON=CC(C)(C)NC(=O)C(OC)Oc1cc(C)c2ncc(I)cc2c1 (stereo not shown) [Compound No. 73, 2-(3-Iodo-8-methyl-quinolin-6-yloxy)-2-methoxy-N-(2-methoxyimino-1,1-dimethyl-ethyl)-acetamide] | ≥ 60% |  | ≥ 60% |  | ≥ 60% | ≥ 60% | ≥ 60% | ≥ 60% | ≥ 60% | ≥ 60% | 126 to 128 °C
12 | C#Cc1cnc2c(C)cc(OC(OC)C(=O)NC(C)(C)C=NOC)cc2c1 (stereo not shown) [Compound No. 77, 2-(3-Ethynyl-8-methyl-quinolin-6-yloxy)-2-methoxy-N-(2-methoxyimino-1,1-dimethyl-ethyl)-acetamide] | ≥ 60% | ≥ 60% | ≥ 60% |  | ≥ 60% | ≥ 60% | ≥ 60% |  | ≥ 60% | ≥ 60% | 138 to 140 °C
13 | CON=CC(C)(C)NC(=O)C(Oc1cc(Cl)c2ncc(Cl)cc2c1)SC (stereo not shown) [Compound No. 90, 2-(3,8-Dichloro-quinolin-6-yloxy)-N-(2-methoxyimino-1,1-dimethyl-ethyl)-2-methylsulfanyl-acetamide] | ≥ 60% |  | ≥ 60% |  | ≥ 60% | ≥ 60% |  | ≥ 60% |  |  | 158 to 161 °C
14 | C#Cc1cnc2c(Cl)cc(OC(SC)C(=O)NC(C)(C)C=NOCC)cc2c1 (stereo not shown) [Compound No. 116, 2-(8-Chloro-3-ethynyl-quinolin-6-yloxy)-N-(2-ethoxyimino-1,1-dimethyl-ethyl)-2-methylsulfanyl-acetamide] | ≥ 60% | ≥ 60% |  | ≥ 60% | ≥ 60% | ≥ 60% | ≥ 60% |  |  |  | 
